PubChem BioAssay AID248 (DTP/NCI, 2004)
Several values for one entry are separate records, joined by “and”; a condition that tells them apart may be missing. Equal entries are not always repeated. Toxic doses and inconclusive results are not listed. Cut-off read from the data, not from the text of the source: active = T/C of 150% or more; inactive = T/C below 125%.

Tested on: L1210 leukemia ip in BDF1 mice, survival T/C
Assay: NCI In Vivo Anticancer Drug Screen. Data for tumor model L1210 Leukemia (intraperitoneal) in B6D2F1 (BDF1) mice
Conditions: endpoint: mean survival time, higher = longer survival
Method in brief: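 Tumor cells were implanted, animals were treated, and survival was followed. The result divides the treated measurement by the vehicle-control measurement.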

[1] = dose: 100.0 mg/kg/injection, schedule: Q01DX001 (ip), vehicle: saline
[2] = dose: 200.0 mg/kg/injection, schedule: Q01DX001 (ip), vehicle: saline
[3] = dose: 12.5 mg/kg/injection, schedule: Q01DX009 (ip), vehicle: Klucel (hydroxypropylcellulose) (HPC)
[4] = dose: 25.0 mg/kg/injection, schedule: Q01DX009 (ip), vehicle: Klucel (hydroxypropylcellulose) (HPC)

Measured: T/C

CC(=O)c1ccc(CC2CCC2)cc1
inactive: dose: 75.0 mg/kg/injection, schedule: Q01DX009 (ip), vehicle: Klucel (hydroxypropylcellulose) (HPC) 97 % of control | dose: 150.0 mg/kg/injection, schedule: Q01DX009 (ip), vehicle: Klucel (hydroxypropylcellulose) (HPC) 112 % of control | dose: 300.0 mg/kg/injection, schedule: Q01DX009 (ip), vehicle: Klucel (hydroxypropylcellulose) (HPC) 110 % of control

O=C(Cc1c[nH]c2ccccc12)N=Nc1c(O)[nH]c2ccccc12
inactive: dose: 100.0 mg/kg/injection, schedule: Q01DX001 (ip), vehicle: other 102 % of control | dose: 200.0 mg/kg/injection, schedule: Q01DX001 (ip), vehicle: other 101 % of control | dose: 400.0 mg/kg/injection, schedule: Q01DX001 (ip), vehicle: other 93 % of control

COC1CC=CC2=C1CCC1C2CC2C(=O)C1(C)CCC2O (stereo unspecified)
inactive: dose: 100.0 mg/kg/injection, schedule: Q04DX003 (ip), vehicle: saline 94 % of control | dose: 200.0 mg/kg/injection, schedule: Q04DX003 (ip), vehicle: saline 100 % of control | dose: 400.0 mg/kg/injection, schedule: Q04DX003 (ip), vehicle: saline 97 % of control

O=[N+]([O-])c1ccc(S(=O)(=O)n2cccc2)cc1
inactive: dose: 50.0 mg/kg/injection, schedule: Q01DX001 (ip), vehicle: saline 98 % of control | [1] 95 % of control | [2] 95 % of control | dose: 400.0 mg/kg/injection, schedule: Q01DX001 (ip), vehicle: saline 98 % of control

CCOc1cc(C#N)c(OCC)cc1N
inactive: [1] 103 % of control | [2] 101 % of control

CCOC(=O)c1ccc(NC(=O)c2ccc(F)cc2)cc1
inactive: dose: 100.0 mg/kg/injection, schedule: Q01DX001 (ip), vehicle: carboxymethylcellulose (CMC) 97 % of control and 105 % of control | dose: 100.0 mg/kg/injection, schedule: Q01DX009 (ip), vehicle: carboxymethylcellulose (CMC) 103 % of control and 105 % of control | dose: 100.0 mg/kg/injection, schedule: Q04DX002 (ip), vehicle: carboxymethylcellulose (CMC) 96 % of control and 97 % of control | dose: 100.0 mg/kg/injection, schedule: Q04DX003 (ip), vehicle: carboxymethylcellulose (CMC) 94 % of control and 98 % of control | dose: 200.0 mg/kg/injection, schedule: Q01DX001 (ip), vehicle: carboxymethylcellulose (CMC) 101 % of control and 91 % of control | dose: 200.0 mg/kg/injection, schedule: Q01DX009 (ip), vehicle: carboxymethylcellulose (CMC) 94 % of control and 91 % of control | dose: 200.0 mg/kg/injection, schedule: Q04DX002 (ip), vehicle: carboxymethylcellulose (CMC) 97 % of control and 100 % of control | dose: 200.0 mg/kg/injection, schedule: Q04DX003 (ip), vehicle: carboxymethylcellulose (CMC) 95 % of control and 91 % of control | dose: 400.0 mg/kg/injection, schedule: Q01DX001 (ip), vehicle: carboxymethylcellulose (CMC) 96 % of control and 90 % of control | dose: 400.0 mg/kg/injection, schedule: Q01DX009 (ip), vehicle: carboxymethylcellulose (CMC) 93 % of control and 106 % of control | dose: 400.0 mg/kg/injection, schedule: Q04DX002 (ip), vehicle: carboxymethylcellulose (CMC) 92 % of control and 90 % of control | dose: 400.0 mg/kg/injection, schedule: Q04DX003 (ip), vehicle: carboxymethylcellulose (CMC) 100 % of control and 91 % of control

CN(c1ccccc1)c1cc(=O)[nH]c(=O)[nH]1
inactive: dose: 100.0 mg/kg/injection, schedule: Q01DX001 (ip), vehicle: Klucel (hydroxypropylcellulose) (HPC) 95 % of control | dose: 200.0 mg/kg/injection, schedule: Q01DX001 (ip), vehicle: Klucel (hydroxypropylcellulose) (HPC) 104 % of control | dose: 400.0 mg/kg/injection, schedule: Q01DX001 (ip), vehicle: Klucel (hydroxypropylcellulose) (HPC) 99 % of control

Nc1nc2nsnc2nc1N
inactive: dose: 3.12 mg/kg/injection, schedule: Q01DX009 (ip), vehicle: water 86 % of control | dose: 6.25 mg/kg/injection, schedule: Q01DX009 (ip), vehicle: water 93 % of control | dose: 12.5 mg/kg/injection, schedule: Q01DX009 (ip), vehicle: water 90 % of control | dose: 25.0 mg/kg/injection, schedule: Q01DX009 (ip), vehicle: water 98 % of control and 106 % of control | dose: 50.0 mg/kg/injection, schedule: Q01DX009 (ip), vehicle: water 97 % of control and 91 % of control

Cc1ccc(N2CCNCC2)cc1
inactive: dose: 6.25 mg/kg/injection, schedule: Q04DX003 (ip), vehicle: saline 91 % of control | dose: 12.5 mg/kg/injection, schedule: Q04DX003 (ip), vehicle: saline 93 % of control | dose: 25.0 mg/kg/injection, schedule: Q04DX003 (ip), vehicle: saline 103 % of control

C/C(=N/NC(=O)C1CCCO1)c1ccc(C)cc1 (stereo unspecified)
inactive: [3] 104 % of control | [4] 102 % of control

O=C(Nc1ccccc1C1=NCCN1)c1ccc(C(=O)Nc2ccccc2C2=NCCN2)cc1
inactive: dose: 15.0 mg/kg/injection, schedule: Q01DX Z (ip), vehicle: methylcellulose (MC) 88 % of control | dose: 30.0 mg/kg/injection, schedule: Q01DX Z (ip), vehicle: methylcellulose (MC) 95 % of control | dose: 62.0 mg/kg/injection, schedule: Q01DX Z (ip), vehicle: carboxymethylcellulose (CMC) 92 % of control | dose: 125.0 mg/kg/injection, schedule: Q01DX Z (ip), vehicle: carboxymethylcellulose (CMC) 94 % of control | dose: 250.0 mg/kg/injection, schedule: Q01DX Z (ip), vehicle: carboxymethylcellulose (CMC) 88 % of control

ClC(Cl)=C1SCCCS1
inactive: dose: 100.0 mg/kg/injection, schedule: Q01DX001 (ip), vehicle: saline with Tween-80 96 % of control | dose: 200.0 mg/kg/injection, schedule: Q01DX001 (ip), vehicle: saline with Tween-80 108 % of control

NS(=O)(=O)c1ccc(N=Nc2ncc(CCNC3=CC(=O)C(=O)c4ccccc43)[nH]2)cc1
inactive: [3] 93 % of control | [4] 96 % of control | dose: 50.0 mg/kg/injection, schedule: Q01DX009 (ip), vehicle: Klucel (hydroxypropylcellulose) (HPC) 96 % of control and 92 % of control

O=C(Nc1ccc(OCc2ccccc2)cc1)c1ccc([N+](=O)[O-])s1
inactive: dose: 400.0 mg/kg/injection, schedule: Q01DX005 (ip), vehicle: water 89 % of control

NC(Cn1cc(N(CCCl)CCCl)c(=O)[nH]c1=O)C(=O)O (stereo unspecified)
inactive: dose: 2.5 mg/kg/injection, schedule: Q01DX009 (ip), vehicle: water 114 % of control | dose: 4.0 mg/kg/injection, schedule: Q01DX009 (ip), vehicle: saline 108 % of control | dose: 5.0 mg/kg/injection, schedule: Q01DX009 (ip), vehicle: water 122 % of control | dose: 6.0 mg/kg/injection, schedule: Q01DX009 (ip), vehicle: saline 113 % of control | dose: 8.0 mg/kg/injection, schedule: Q01DX009 (ip), vehicle: saline 103 % of control | dose: 9.0 mg/kg/injection, schedule: Q01DX009 (ip), vehicle: saline 111 % of control | dose: 14.0 mg/kg/injection, schedule: Q01DX009 (ip), vehicle: saline 120 % of control | dose: 16.0 mg/kg/injection, schedule: Q01DX009 (ip), vehicle: saline 118 % of control | dose: 19.0 mg/kg/injection, schedule: Q01DX001 (ip), vehicle: saline 97 % of control | dose: 20.0 mg/kg/injection, schedule: Q01DX001 (ip), vehicle: saline 121 % of control | dose: 30.0 mg/kg/injection, schedule: Q01DX001 (ip), vehicle: saline 115 % of control | dose: 33.0 mg/kg/injection, schedule: Q01DX009 (ip), vehicle: saline 98 % of control | dose: 37.5 mg/kg/injection, schedule: Q01DX001 (ip), vehicle: saline 114 % of control | dose: 45.0 mg/kg/injection, schedule: Q01DX009 (ip), vehicle: saline 101 % of control | dose: 75.0 mg/kg/injection, schedule: Q01DX009 (ip), vehicle: saline 103 % of control
